We go through two compounds from patent publication EP4786454A1, “HETEROARYL DERIVATIVE AND USE THEREOF” (priority 2023, dated 2025).

The nature of series [1]: Pharmacokinetic evaluation after single intravenous and gavage administration. As to conditions: mouse, in vivo, CD-1 mice, IV:0.5 PO:2 mg/kg.
Another series concerns the target T1, hERG potassium channels (Homo sapiens, UniProt Q12809).
T1 construct: expressed in transfected cells; host or cells: CHO-hERG
The experiment in a line: Automated patch-clamp (Qpatch) assay on CHO-hERG cells. Format: cell-based. How it is done:
CHO-hERG cells were cultured in a 175 cm^2 culture flask. When cells grew to a density of 60 to 80%, the culture medium was removed. Cells were washed once with 7 mL of PBS (Phosphate Buffered Saline), and then 3 mL of cell dissociation reagent was added for digestion. After the digestion was completed, 7 mL of culture medium was added for neutralization, and then the mixture was centrifuged. The supernatant was aspirated, and then 5 mL of culture medium was added to resuspend the cells and ensure that the cell density was 2~5×10^6/mL.
The compound stock solution was diluted with DMSO. 10 µL of compound stock solution was added to 20 µL of DMSO solution, followed by 3-fold serial dilution to obtain 6 DMSO concentrations. 4 µL of the compound solution at each of the six DMSO concentrations was added to 396 µL of extracellular solution to achieve a 100-fold dilution to obtain six intermediate concentrations. Then, 80 µL of the compound solution at each of the six intermediate concentrations was added to 320 µL of extracellular solution to achieve a 5-fold dilution to the desired final test concentrations. […]
The electrophysiological process was recorded. […] This voltage stimulation was applied every 15 seconds, and recorded for 2 minutes. The extracellular solution was then given, and recorded for 5 minutes. […]
Assay data were analyzed by GraphPad Prism 5.0 software. […]
A general note: The patch-clamp technique gives a direct electrical read-out from membranes.

A short description of series [2]: Pharmacokinetic evaluation after single intravenous and gavage administration. As to conditions: mouse, in vivo, CD-1 mice, IV:1 PO:5 mg/kg. As for the experimental part: Assay method: Mix a test compound with a mixture of 5% DMSO, 60% polyethylene glycol (PEG400) and 35% water, vortex and sonicate to prepare a clear solution of 0.2 mg/mL. Filter the solution through a microporous filter membrane for later use. Select the male CD-1 mice weighing 25 to 35 g, and administer a candidate compound solution to them via intravenous injection at a dosage of 1 mg/kg. After fasting, administer the candidate compound solution to them orally at a dosage of 5 mg/kg. After the administration to the animals, collect 25 µL of blood at 0.083, 0.25, 0.5, 1, 2, 4, 8, 12, and 24 hours, and place the blood in commercially available anticoagulant tubes pre-filled with EDTA-K2. Centrifuge the tubes for 10 minutes to separate the plasma, and store them at -60 °C. Determine the content of the target compound in the plasma samples by LC/MS/MS, and calculate the pharmacokinetic parameters using Phoenix WinNonlin software (Pharsight, USA).
Definition of each parameter: IV: intravenous injection; PO: oral administration; C0: instantaneous required concentration after intravenous injection; Cmax: peak plasma concentration after administration; Tmax: time required to reach the peak drug concentration after administration; T1/2: time required for plasma concentration to decrease by half; Vdss: apparent volume of distribution, which refers to the ratio constant between the amount of drug in the body and the plasma concentration when the drug reaches dynamic equilibrium in the body; Cl: clearance, which refers to the apparent volume of distribution of a drug cleared from the body per unit time; Tlast: time of the last test point; AUC0-last: area under the plasma concentration-time curve, which refers to the area enclosed by the plasma concentration curve on the time axis; F: a measure of the speed and extent to which a drug is absorbed into the blood circulation, which is an important indicator for evaluating the degree of drug absorption.
The purpose of this assay was to evaluate the pharmacokinetic behaviors after a single intravenous bolus and gavage administration of a compound, to investigate the bioavailability after the gavage administration, and to provide animal experimental data for clinical research.
CD-1 mice (male, 7 to 9 weeks old)
The pharmacokinetic characteristics of the compounds after intravenous and oral administration were assayed in rodents using a standard protocol. In the assay, a candidate compound was prepared into a clear solution and administered to mice via single intravenous and oral administration. The solvent for both intravenous and oral administration was a mixed solvent prepared with 5% DMSO, 60% PEG400, and 35% water. Four female CD-1 mice were used in this project. Two mice were administered intravenously, and plasma samples were collected at 0.083, 0.25, 0.5, 1, 2, 4, 8 and 24 h after the administration. The other two mice were administered orally via gavage, and plasma samples were collected at 0.25, 0.5, 1, 2, 4, 8 and 24 h after the administration. The plasma samples were […] at 4 °C and 3,200 × g for 10 min, and the supernatants were separated to give plasma samples. 20 times the volume of methanol solution containing internal standard was added to precipitate the proteins. After centrifugation at 12,000 × g for 15 min at 4 °C, 50 µL of the supernatant was taken and transferred to a 96-well plate, and centrifuged a second time, and the resulting supernatant was injected for analysis. The plasma concentration was quantitatively analyzed by LC-MS/MS method, and the pharmacokinetic parameters such as peak concentration (Cmax), clearance (CL), half-life (T1/2), […] (Vdss), area under the plasma concentration-time curve (AUC0-last), and bioavailability (F) were calculated.

The mark [3] stands for this setting: read-out: Area under the plasma concentration-time curve AUC0-last PO.
The mark [4] stands for this setting: read-out: Half-life T1/2 (IV) (converted).
Where [5] appears, read: read-out: Peak concentration Cmax.
The mark [6] stands for this setting: read-out: Tissue distribution Vdss.

Read-outs that look alike come from different tables or passages of the source. A value given as a limit tells only on which side of the number the result lay.

T1 sequence (Q12809 whole entry): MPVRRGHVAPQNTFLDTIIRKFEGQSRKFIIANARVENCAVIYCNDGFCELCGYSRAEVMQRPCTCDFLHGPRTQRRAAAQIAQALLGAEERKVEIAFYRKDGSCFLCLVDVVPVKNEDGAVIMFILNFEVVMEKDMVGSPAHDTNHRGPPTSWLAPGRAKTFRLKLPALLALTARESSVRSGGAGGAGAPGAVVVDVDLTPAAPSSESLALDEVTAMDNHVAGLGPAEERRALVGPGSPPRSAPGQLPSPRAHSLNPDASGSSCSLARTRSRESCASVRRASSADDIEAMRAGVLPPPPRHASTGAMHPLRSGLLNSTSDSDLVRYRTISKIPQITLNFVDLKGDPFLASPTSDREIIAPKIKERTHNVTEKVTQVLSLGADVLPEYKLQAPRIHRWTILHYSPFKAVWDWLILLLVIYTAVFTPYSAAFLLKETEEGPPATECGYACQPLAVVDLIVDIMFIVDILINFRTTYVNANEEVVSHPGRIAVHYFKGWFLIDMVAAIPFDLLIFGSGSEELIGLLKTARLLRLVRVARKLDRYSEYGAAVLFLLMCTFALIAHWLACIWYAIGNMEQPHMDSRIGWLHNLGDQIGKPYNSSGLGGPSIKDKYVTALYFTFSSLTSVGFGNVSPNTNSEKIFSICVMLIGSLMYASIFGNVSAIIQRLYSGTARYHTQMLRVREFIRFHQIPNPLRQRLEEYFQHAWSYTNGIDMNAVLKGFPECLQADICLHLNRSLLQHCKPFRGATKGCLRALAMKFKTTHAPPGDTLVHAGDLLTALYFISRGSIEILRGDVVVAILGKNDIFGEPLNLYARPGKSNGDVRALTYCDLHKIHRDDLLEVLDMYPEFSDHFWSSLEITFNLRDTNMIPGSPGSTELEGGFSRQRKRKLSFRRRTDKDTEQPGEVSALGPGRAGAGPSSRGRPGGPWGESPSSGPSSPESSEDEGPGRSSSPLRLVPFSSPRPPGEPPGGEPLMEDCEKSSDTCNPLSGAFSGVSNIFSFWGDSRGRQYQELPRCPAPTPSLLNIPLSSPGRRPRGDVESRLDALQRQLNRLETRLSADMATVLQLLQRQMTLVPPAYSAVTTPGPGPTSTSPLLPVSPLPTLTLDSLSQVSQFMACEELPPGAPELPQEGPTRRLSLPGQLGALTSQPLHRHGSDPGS

For orientation: bioavailability means dose-corrected exposure relative to a reference, in per cent. What is called IC50 is the point on the concentration scale where inhibition reaches its midpoint. Consider `CC(C)(C)CC(=O)Nc1nc2c(F)cc(C#N)cn2c1C1=CCCC1` [Compound 3], for which the AUC(0-t) in series [1] (setting [3]) was determined as 2.35 µM·h. Moreover, in series [1] (read-out: Bioavailability F), the bioavailability was 57.3%. Also, the clearance in series [1] (read-out: Clearance CL) amounted to 25.6 mL/min/kg. The half-life in series [1] (setting [4]) was 30 min. In addition, in series [1] (setting [5]), the Cmax stood at 1150 nM. The Vd in series [1] (setting [6]) was determined as 0.94 L/kg. For the same compound, the IC50 at hERG potassium channels (CHO-hERG cells, highest test concentration 40.00 µM, read-out: IC50) is more than 40 µM.
Consider `CC(C)(C)CC(=O)Nc1nc2c(F)cc(C#N)cn2c1-c1ccc(OC(F)(F)F)cc1` [Compound 1], for which the AUC(0-t) in series [2] (setting [3]) came out at 1.41 µM·h. The bioavailability in series [2] (read-out: Bioavailability F) amounted to 51.1%. In addition, the clearance in series [2] (read-out: Clearance CL) came to 67.8 mL/min/kg. In series [2] (setting [4]), the half-life was 52.8 min. The Cmax in series [2] (setting [5]) came to 355 nM. The Vd in series [2] (setting [6]) amounted to 4.89 L/kg. The 50% inhibitory concentration (IC50) on hERG potassium channels is more than 40 µM.
